The supplement of paper PMC10307832

Legend:
Assay in all cases: relative viability (nuclei count vs DMSO), 5 days (fraction); higher = more cells survive
[1] = system: COR-L 105
Summary of the method: (§1)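 Lung cancer cell lines, seeded in 1536-well plates, were treated the following day by pin tool with a single drug or with five library-drug doses (not always all listed) in √10 steps on top of a fixed anchor-drug dose. Cells were fixed and nuclei stained in one step after 5 days, and nuclei were counted. Relative viability is the nuclei count for treated wells divided by that for vehicle wells, reported as medians of duplicate plates.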

[2] = system: NCI-H1975
Summary of the method: as §1

[3] = system: NCI-H2009
Summary of the method: as §1

[4] = system: ChaGo-K-1
Summary of the method: as §1

[5] = system: NCI-H2087
Summary of the method: as §1

[6] = system: NCI-H1993
Summary of the method: as §1

[7] = system: NCI-H1792
Summary of the method: as §1

[8] = system: NCI-H2228
Summary of the method: as §1

[9] = system: NCI-H441
Summary of the method: as §1

[10] = system: NCI-H1355
Summary of the method: as §1

[11] = system: H3255
Summary of the method: as §1

[12] = system: EPLC-272H
Summary of the method: as §1

[13] = system: HCC-366
Summary of the method: as §1

[14] = system: NCI-H322M
Summary of the method: as §1

[15] = system: CAL-12T
Summary of the method: as §1

[16] = system: SK-MES-1
Summary of the method: as §1

[17] = system: EKVX
Summary of the method: as §1

[18] = system: HCC-827
Summary of the method: as §1

[19] = system: NCI-H460
Summary of the method: as §1

[20] = system: NCI-H2085
Summary of the method: as §1

Cc1csc(=NC2CCCCC2)n1/N=C/c1ccc(O)c(O)c1O [MIM1] + CC1(C)CCC(c2ccc(Cl)cc2)=C(CN2CCN(c3ccc(C(=O)NS(=O)(=O)c4ccc(N[C@H](CCN5CCOCC5)CSc5ccccc5)c(S(=O)(=O)C(F)(F)F)c4)cc3)CC2)C1 [Navitoclax] (partner 0.5 µM)
relative viability ([1]; first compound 0.2 µM): 0.78
relative viability ([1]; first compound 0.6325 µM): 0.8
relative viability ([1]; first compound 2 µM): 0.732
relative viability ([1]; first compound 6.325 µM): 0.628
relative viability ([1]; first compound 20 µM): 0.54
relative viability ([2]; first compound 0.2 µM): 1.16
relative viability ([2]; first compound 0.6325 µM): 1.23
relative viability ([2]; first compound 2 µM): 1.04
relative viability ([2]; first compound 6.325 µM): 0.732
relative viability ([2]; first compound 20 µM): 0.761
relative viability ([3]; first compound 0.2 µM): 1.14
relative viability ([3]; first compound 0.6325 µM): 1.19
relative viability ([3]; first compound 2 µM): 1.22
relative viability ([3]; first compound 6.325 µM): 0.999
relative viability ([3]; first compound 20 µM): 0.826
relative viability ([4]; first compound 0.2 µM): 1.14
relative viability ([4]; first compound 0.6325 µM): 0.741
relative viability ([4]; first compound 2 µM): 0.943
relative viability ([4]; first compound 6.325 µM): 0.717
relative viability ([4]; first compound 20 µM): 0.31
relative viability ([5]; first compound 0.2 µM): 1.05
relative viability ([5]; first compound 0.6325 µM): 0.921
relative viability ([5]; first compound 2 µM): 1.03
relative viability ([5]; first compound 6.325 µM): 0.928
relative viability ([5]; first compound 20 µM): 0.382
relative viability ([6]; first compound 0.2 µM): 0.911
relative viability ([6]; first compound 0.6325 µM): 0.951
relative viability ([6]; first compound 2 µM): 0.854
relative viability ([6]; first compound 6.325 µM): 0.822
relative viability ([6]; first compound 20 µM): 0.425
relative viability ([7]; first compound 0.2 µM): 0.59
relative viability ([7]; first compound 0.6325 µM): 0.484
relative viability ([7]; first compound 2 µM): 0.559
relative viability ([7]; first compound 6.325 µM): 0.501
relative viability ([7]; first compound 20 µM): 0.245
relative viability ([8]; first compound 0.2 µM): 0.959
relative viability ([8]; first compound 0.6325 µM): 0.916
relative viability ([8]; first compound 2 µM): 0.874
relative viability ([8]; first compound 6.325 µM): 0.274
relative viability ([8]; first compound 20 µM): 0.157
relative viability ([9]; first compound 0.2 µM): 0.58
relative viability ([9]; first compound 0.6325 µM): 0.912
relative viability ([9]; first compound 2 µM): 0.706
relative viability ([9]; first compound 6.325 µM): 0.577
relative viability ([9]; first compound 20 µM): 0.24
relative viability ([10]; first compound 0.2 µM): 0.977
relative viability ([10]; first compound 0.6325 µM): 1.03
relative viability ([10]; first compound 2 µM): 1.07
relative viability ([10]; first compound 6.325 µM): 0.793
relative viability ([10]; first compound 20 µM): 0.95
relative viability ([11]; first compound 0.2 µM): 0.561
relative viability ([11]; first compound 0.6325 µM): 0.557
relative viability ([11]; first compound 2 µM): 0.467
relative viability ([11]; first compound 6.325 µM): 0.413
relative viability ([11]; first compound 20 µM): 0.198
relative viability ([12]; first compound 0.2 µM): 1.11
relative viability ([12]; first compound 0.6325 µM): 1.04
relative viability ([12]; first compound 2 µM): 1.2
relative viability ([12]; first compound 6.325 µM): 1
relative viability ([12]; first compound 20 µM): 0.199
relative viability ([13]; first compound 0.2 µM): 1.06
relative viability ([13]; first compound 0.6325 µM): 0.943
relative viability ([13]; first compound 2 µM): 0.809
relative viability ([13]; first compound 6.325 µM): 1
relative viability ([13]; first compound 20 µM): 0.0645
relative viability ([14]; first compound 0.2 µM): 1.13
relative viability ([14]; first compound 0.6325 µM): 1.29
relative viability ([14]; first compound 2 µM): 1.31
relative viability ([14]; first compound 6.325 µM): 1.13
relative viability ([14]; first compound 20 µM): 1.37
relative viability ([15]; first compound 0.2 µM): 1.13
relative viability ([15]; first compound 0.6325 µM): 1.36
relative viability ([15]; first compound 2 µM): 1.15
relative viability ([15]; first compound 6.325 µM): 0.731
relative viability ([15]; first compound 20 µM): 0.945
relative viability ([16]; first compound 0.2 µM): 1.29
relative viability ([16]; first compound 0.6325 µM): 1.26
relative viability ([16]; first compound 2 µM): 1.28
relative viability ([16]; first compound 6.325 µM): 0.939
relative viability ([16]; first compound 20 µM): 0.795
relative viability ([17]; first compound 0.2 µM): 0.922
relative viability ([17]; first compound 0.6325 µM): 1.07
relative viability ([17]; first compound 2 µM): 0.965
relative viability ([17]; first compound 6.325 µM): 0.761
relative viability ([17]; first compound 20 µM): 0.293
relative viability ([18]; first compound 0.2 µM): 0.961
relative viability ([18]; first compound 0.6325 µM): 1.01
relative viability ([18]; first compound 2 µM): 0.977
relative viability ([18]; first compound 6.325 µM): 0.39
relative viability ([18]; first compound 20 µM): 0.696
relative viability ([19]; first compound 0.2 µM): 1.16
relative viability ([19]; first compound 0.6325 µM): 1.14
relative viability ([19]; first compound 2 µM): 0.772
relative viability ([19]; first compound 6.325 µM): 0.416
relative viability ([19]; first compound 20 µM): 0.0332
relative viability ([20]; first compound 0.2 µM): 1.17
relative viability ([20]; first compound 0.6325 µM): 1.08
relative viability ([20]; first compound 2 µM): 1.12
relative viability ([20]; first compound 6.325 µM): 1.02
relative viability ([20]; first compound 20 µM): 1.01
